Like-named read-outs stand apart in the source and are kept apart here. Values belong to the compound of their own block, whether it stands above or below them.
Columns and labels:
AML 052308 cells [1] = assay: cells; settings: read-out: LC50
Excerpt: (§1) Derivatives were screened for antileukemic activity against AML cells in culture (See FIGS. 1-7).

AML 052308 cells [2] = test system: AML 052308 cells
Excerpt: as §1

M14 [3] = settings: values obtained from NCI database; cited from earlier work
LOX IMVI [4] = settings: values obtained from NCI database; cited from earlier work
CCRF-CEM [5] = settings: values obtained from NCI database; cited from earlier work
T-47D [6] = settings: values obtained from NCI database; cited from earlier work
IGROV1 [7] = settings: values obtained from NCI database; cited from earlier work
CAKI-1 [8] = settings: values obtained from NCI database; cited from earlier work
NCI-H522 [9] = settings: values obtained from NCI database; cited from earlier work
RXF 393 [10] = settings: values obtained from NCI database; cited from earlier work
SF-539 [11] = settings: values obtained from NCI database; cited from earlier work
MCF7 [12] = settings: values obtained from NCI database; cited from earlier work
HOP-92 [13] = settings: values obtained from NCI database; cited from earlier work
HCT-116 [14] = settings: values obtained from NCI database; cited from earlier work
MDA-MB-435 [15] = settings: values obtained from NCI database; cited from earlier work
COLO 205 [16] = settings: values obtained from NCI database; cited from earlier work
BT-549 [17] = settings: values obtained from NCI database; cited from earlier work
HL-60(TB) [18] = settings: values obtained from NCI database; cited from earlier work
RPMI-8226 [19] = settings: values obtained from NCI database; cited from earlier work
TK-10 [20] = settings: values obtained from NCI database; cited from earlier work
SW-620 [21] = settings: values obtained from NCI database; cited from earlier work
ACHN [22] = settings: values obtained from NCI database; cited from earlier work
DU-145 [23] = settings: values obtained from NCI database; cited from earlier work
MOLT-4 [24] = settings: values obtained from NCI database; cited from earlier work
K-562 [25] = settings: values obtained from NCI database; cited from earlier work
OVCAR-3 [26] = settings: values obtained from NCI database; cited from earlier work
MDA-MB-468 = assay: panel of 60 human tumor cell lines, growth inhibition (Breast Cancer); settings: Homo sapiens, MDA-MB-468
SR = assay: panel of 60 human tumor cell lines, growth inhibition (Leukemia); settings: Homo sapiens
CCRF-CEM [27] = assay: as above; settings: Homo sapiens
SF-539 [28] = assay: panel of 60 human tumor cell lines, growth inhibition (CNS Cancer); settings: Homo sapiens, SF-539
T-47D [29] = assay: panel of 60 human tumor cell lines, growth inhibition (Breast Cancer); settings: Homo sapiens, T47D
BT-549 [30] = assay: as above; settings: Homo sapiens, BT-549
RPMI-8226 [31] = assay: panel of 60 human tumor cell lines, growth inhibition (Leukemia); settings: Homo sapiens, RPMI-8226
RXF 393 [32] = assay: panel of 60 human tumor cell lines, growth inhibition (Renal Cancer); settings: Homo sapiens, RXF 393, RXF 393; 5-dose assay
MCF7 [33] = assay: panel of 60 human tumor cell lines, growth inhibition (Breast Cancer); settings: Homo sapiens, MCF7, MCF7; 5-dose assay
ACHN [34] = assay: panel of 60 human tumor cell lines, growth inhibition (Renal Cancer); settings: Homo sapiens
HL-60(TB) [35] = assay: cells; settings: Homo sapiens, HL-60
LOX IMVI [36] = assay: panel of 60 human tumor cell lines, growth inhibition (Melanoma); settings: Homo sapiens, 5-dose assay
HOP-92 [37] = assay: panel of 60 human tumor cell lines, growth inhibition (Non-Small Cell Lung Cancer); settings: Homo sapiens, HOP-92, HOP-92; 5-dose assay
SW-620 [38] = assay: panel of 60 human tumor cell lines, growth inhibition (Colon Cancer); settings: Homo sapiens, SW-620, SW-620; 5-dose assay
SNB-75 = assay: panel of 60 human tumor cell lines, growth inhibition (CNS Cancer); settings: Homo sapiens, SNB-75
IGROV1 [39] = assay: panel of 60 human tumor cell lines, growth inhibition (Ovarian Cancer); settings: Homo sapiens, IGROV-1
COLO 205 [40] = assay: panel of 60 human tumor cell lines, growth inhibition (Colon Cancer); settings: Homo sapiens, COLO 205
DU-145 [41] = assay: panel of 60 human tumor cell lines, growth inhibition (Prostate Cancer); settings: Homo sapiens, DU-145
OVCAR-3 [42] = assay: panel of 60 human tumor cell lines, growth inhibition (Ovarian Cancer); settings: Homo sapiens, OVCAR-3
MDA-MB-435 [43] = assay: panel of 60 human tumor cell lines, growth inhibition (Melanoma); settings: Homo sapiens, MDA-MB-435
K-562 [44] = assay: panel of 60 human tumor cell lines, growth inhibition (Leukemia); settings: Homo sapiens, K562
TK-10 [45] = assay: panel of 60 human tumor cell lines, growth inhibition (Renal Cancer); settings: Homo sapiens, TK-10, TK-10; 5-dose assay
[46] = hydrolytic stability in human plasma; type: in vitro ADME
MALME-3M = assay: panel of 60 human tumor cell lines, growth inhibition (Melanoma); settings: Homo sapiens, Malme-3M
[47] = test system: panel of 60 human tumor cell lines; assay: panel of 60 human tumor cell lines, whole panel or sub-panel (single concentration screen, summaries); type: cell-based; settings: range over 6a and 6e
HCT-116 [48] = assay: panel of 60 human tumor cell lines, growth inhibition (Colon Cancer); settings: Homo sapiens, HCT-116, HCT-116; 5-dose assay
M14 [49] = assay: panel of 60 human tumor cell lines, growth inhibition (Melanoma); settings: Homo sapiens, M14
CAKI-1 [50] = assay: panel of 60 human tumor cell lines, growth inhibition (Renal Cancer); settings: Homo sapiens, CAKI-1
NCI-H522 [51] = assay: panel of 60 human tumor cell lines, growth inhibition (Non-Small Cell Lung Cancer); settings: Homo sapiens, NCI-H522
MOLT-4 [52] = assay: panel of 60 human tumor cell lines, growth inhibition (Leukemia); settings: Homo sapiens, MOLT-4
M9 ENL cells = assay: antileukemic activity, cell viability; settings: M9 ENL cell line
Description: Carbamate and carbonate derivatives of MMB were also screened for activity against M9 ENL cells at concentrations of 5, 10 and 20 μM (FIG. 10). […] Additionally, succinic amide derivatives of MMB were screened for activity against M9 ENL cells at concentrations of 5, 10 and 20 μM (FIG. 11).

[53] = test system: AML 100510 primary isolate; assay: antileukemic activity, cell viability
[54] = test system: AML 123009 primary isolate; assay: antileukemic activity, cell viability

Compound: C=C1C(=O)OC2C1CC/C(CO)=C\CCC1(C)OC21 (centres unmarked) [MMB, Melampomagnolide B]
CC50 (AML 052308 cells [1]): 16000 nM

Compound: C=C1C(=O)O[C@H]2[C@H]1CC/C(COC(=O)NCCCn1ccnc1)=C\CC[C@@]1(C)O[C@@H]21 [JVM 58]
cytotoxicity compared to MMB (AML 052308 cells [2]): less active than MMB

Compound: C/C1=C\CC[C@@]2(C)O[C@@H]2[C@H]2OC(=O)[C@H](CN(C)C)[C@@H]2CC1 [DMAPT, dimethylaminoparthenolide]
GI50 (M14 [3]): 15800 nM | GI50 (LOX IMVI [4]): 10000 nM | GI50 (CCRF-CEM [5]): 1990 nM | GI50 (T-47D [6]): 39800 nM | GI50 (IGROV1 [7]): 19900 nM | GI50 (CAKI-1 [8]): 12500 nM | GI50 (NCI-H522 [9]): 2510 nM | GI50 (RXF 393 [10]): 15800 nM | GI50 (SF-539 [11]): 2510 nM | GI50 (MCF7 [12]): 5010 nM | GI50 (HOP-92 [13]): 10000 nM | GI50 (HCT-116 [14]): 5010 nM | GI50 (MDA-MB-435 [15]): 7940 nM | GI50 (COLO 205 [16]): 31600 nM | GI50 (BT-549 [17]): 5010 nM | GI50 (HL-60(TB) [18]): 1580 nM | GI50 (RPMI-8226 [19]): 2510 nM | GI50 (TK-10 [20]): 3160 nM | GI50 (SW-620 [21]): 3980 nM | GI50 (ACHN [22]): 15800 nM | GI50 (DU-145 [23]): 5010 nM | GI50 (MOLT-4 [24]): 3160 nM | GI50 (K-562 [25]): 2510 nM | GI50 (OVCAR-3 [26]): 12500 nM

Compound: C=C1C(=O)O[C@H]2[C@H]1CC/C(COC(=O)NCCCn1ccnc1)=C\CC[C@@]1(C)O[C@@H]21 [6f, ((1aR,7aS,10aS,10bS,E)-1a-methyl-8-methylene-9-oxo-1a,2,3,6,7,7a,8,9,10a,10b-decahydrooxireno[2′,3′:9,10]cyclodeca[1,2-b]furan-5-yl)methyl-(3-(1H-imidazol-1-yl)-propyl)carbamate]
melting point: 70 °C

Compound: C=C1C(=O)O[C@H]2[C@H]1CC/C(COC(=O)N1CCC(F)(F)CC1)=C\CC[C@@]1(C)O[C@@H]21 [6a, ((1aR,7aS,10aS,10bS,E)-1a-methyl-8-methylene-9-oxo-1a,2,3,6,7,7a,8,9,10a,10b-decahydrooxireno[2′,3′:9,10]cyclodeca[1,2-b]furan-5-yl)methyl-4,4-difluoropiperidine-1-carboxylate]
GI50 (MDA-MB-468): 570 nM | GI50 (SR): 1380 nM | GI50 (CCRF-CEM [27]; 5-dose assay): 680 nM | GI50 (CCRF-CEM [27]; leukemia cell line CCRF-CEM): 680 nM | GI50 (SF-539 [28]): 1980 nM | GI50 (T-47D [29]): 3070 nM | GI50 (BT-549 [30]): 2690 nM | GI50 (RPMI-8226 [31]): 1980 nM | GI50 (RXF 393 [32]): 1200 nM | GI50 (MCF7 [33]): 1620 nM | GI50 (ACHN [34]): 1790 nM | GI50 (HL-60(TB) [35]): 2040 nM | GI50 (LOX IMVI [36]): 2230 nM | GI50 (HOP-92 [37]): 1450 nM | GI50 (SW-620 [38]): 1460 nM | GI50 (SNB-75): 6130 nM | GI50 (IGROV1 [39]): 2310 nM | GI50 (COLO 205 [40]): 2060 nM | GI50 (DU-145 [41]): 2440 nM | GI50 (OVCAR-3 [42]): 1690 nM | GI50 (MDA-MB-435 [43]): 460 nM | melting point: 150 °C | GI50 (K-562 [44]): 3450 nM | GI50 (TK-10 [45]): 2600 nM | half-life [46]: 8 h | GI50 (MALME-3M): 1900 nM | GI50 ([47]; sub-panel breast cancer): 570 to 3070 nM | GI50 ([47]; sub-panel colon cancer): 1120 to 2060 nM | GI50 ([47]; sub-panel melanoma): 460 to 2840 nM | GI50 ([47]; sub-panel non-small cell lung cancer): 650 to 1450 nM | GI50 ([47]; sub-panel renal cancer): 900 to 2600 nM | GI50 (HCT-116 [48]): 1410 nM | GI50 (M14 [49]): 2840 nM | GI50 (CAKI-1 [50]): 2030 nM | GI50 (NCI-H522 [51]): 1250 nM | GI50 (MOLT-4 [52]): 2050 nM

Compound: C=C1C(=O)O[C@H]2[C@H]1CC/C(COC(=O)NCc1ccccn1)=C\CC[C@@]1(C)O[C@@H]21 [JVM 74]
cytotoxicity compared to MMB (AML 052308 cells [2]): almost equal cytotoxicity to MMB

melting point: 60 °C
Compound: C=C1C(=O)O[C@H]2[C@H]1CC/C(COC(=O)NCCCN1CCOCC1)=C\CC[C@@]1(C)O[C@@H]21 [6g, ((1aR,7aS,10aS,10bS,E)-1a-methyl-8-methylene-9-oxo-1a,2,3,6,7,7a,8,9,10a,10b-decahydrooxireno[2′,3′:9,10]-cyclodeca[1,2-b]furan-5-yl)methyl-(3-morpholinopropyl)carbamate]

Compound: C=C1C(=O)O[C@H]2[C@H]1CC/C(COC(=O)CCN1CCCCC1)=C\CC[C@@]1(C)O[C@@H]21 [JVM 88]
antileukemic activity compared to MMB (M9 ENL cells): good antileukemic activity compared to MMB | antileukemic activity compared to MMB [53]: good antileukemic activity compared to MMB | antileukemic activity compared to MMB [54]: good antileukemic activity compared to MMB

— patent US9469650B2, “Melampomagnolide B derivatives” (BOARD OF TRUSTEES OF THE UNIVERSITY OF ARKANSAS, priority 2013, dated 2016)
